Assay [1] concerns the target T1, Oxytocin receptor (Rattus norvegicus, UniProt P70536).
T1 sequence (P70536 whole entry): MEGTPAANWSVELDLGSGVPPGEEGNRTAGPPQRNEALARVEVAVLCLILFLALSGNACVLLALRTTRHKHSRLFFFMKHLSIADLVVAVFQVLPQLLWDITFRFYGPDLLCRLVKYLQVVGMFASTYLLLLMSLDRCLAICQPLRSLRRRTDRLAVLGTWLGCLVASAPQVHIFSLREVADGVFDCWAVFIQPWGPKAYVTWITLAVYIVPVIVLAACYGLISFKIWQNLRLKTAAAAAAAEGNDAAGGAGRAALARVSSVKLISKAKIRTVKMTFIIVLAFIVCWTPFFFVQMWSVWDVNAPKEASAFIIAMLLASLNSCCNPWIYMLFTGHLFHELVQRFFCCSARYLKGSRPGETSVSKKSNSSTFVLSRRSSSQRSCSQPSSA

Another assay deals with T2, Vasopressin V1b receptor (Homo sapiens, UniProt P47901).
T2 sequence (P47901 whole entry): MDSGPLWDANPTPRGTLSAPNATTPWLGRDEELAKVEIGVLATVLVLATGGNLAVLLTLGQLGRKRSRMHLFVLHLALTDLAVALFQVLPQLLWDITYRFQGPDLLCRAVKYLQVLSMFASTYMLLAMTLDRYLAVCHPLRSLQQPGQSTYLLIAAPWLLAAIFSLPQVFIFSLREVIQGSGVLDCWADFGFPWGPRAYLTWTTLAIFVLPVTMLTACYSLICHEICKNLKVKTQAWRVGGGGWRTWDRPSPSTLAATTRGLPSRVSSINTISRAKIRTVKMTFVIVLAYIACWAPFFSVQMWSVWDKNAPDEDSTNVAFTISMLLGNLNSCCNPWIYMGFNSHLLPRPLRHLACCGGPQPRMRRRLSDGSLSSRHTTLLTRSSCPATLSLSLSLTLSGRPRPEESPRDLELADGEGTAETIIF

In assay [2] the target is T3, Oxytocin receptor (Homo sapiens, UniProt P30559).
T3 sequence (P30559 whole entry): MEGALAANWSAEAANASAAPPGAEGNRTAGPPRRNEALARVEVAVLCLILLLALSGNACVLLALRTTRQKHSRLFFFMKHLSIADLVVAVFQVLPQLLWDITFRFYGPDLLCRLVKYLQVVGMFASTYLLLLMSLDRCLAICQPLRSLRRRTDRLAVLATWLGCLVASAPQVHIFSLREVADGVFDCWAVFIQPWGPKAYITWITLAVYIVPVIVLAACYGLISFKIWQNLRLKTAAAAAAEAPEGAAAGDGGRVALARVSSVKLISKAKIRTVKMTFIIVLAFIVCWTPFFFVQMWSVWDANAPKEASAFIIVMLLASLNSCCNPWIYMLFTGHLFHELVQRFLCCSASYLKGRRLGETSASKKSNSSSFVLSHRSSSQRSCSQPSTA

A further assay concerns the target Vasopressin V1a receptor (Homo sapiens, UniProt P37288).
In the next assay the target is Vasopressin V2 receptor (Homo sapiens, UniProt P30518).

Where a SMILES comes first, the peptide text is derived from it. Bridges are numbered along the chain shown (N, C = ends). [ ]: non-standard residue; d: D form. Orn = NCCC[C@H](N)C(=O)O; Mpa = O=C(O)CCS

Sequence of Vasopressin V1a receptor (P37288 whole entry): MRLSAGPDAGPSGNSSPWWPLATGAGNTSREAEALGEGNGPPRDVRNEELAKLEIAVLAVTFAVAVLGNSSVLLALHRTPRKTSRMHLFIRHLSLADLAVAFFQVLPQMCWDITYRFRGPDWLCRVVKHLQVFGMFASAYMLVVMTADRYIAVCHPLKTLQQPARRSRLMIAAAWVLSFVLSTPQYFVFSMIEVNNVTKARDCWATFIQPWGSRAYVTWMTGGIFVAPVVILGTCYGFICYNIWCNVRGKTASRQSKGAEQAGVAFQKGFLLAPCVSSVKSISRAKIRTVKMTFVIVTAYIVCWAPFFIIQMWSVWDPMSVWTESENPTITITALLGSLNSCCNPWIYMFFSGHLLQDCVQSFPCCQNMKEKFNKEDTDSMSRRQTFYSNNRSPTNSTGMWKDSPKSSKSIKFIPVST
Sequence of Vasopressin V2 receptor (P30518 whole entry): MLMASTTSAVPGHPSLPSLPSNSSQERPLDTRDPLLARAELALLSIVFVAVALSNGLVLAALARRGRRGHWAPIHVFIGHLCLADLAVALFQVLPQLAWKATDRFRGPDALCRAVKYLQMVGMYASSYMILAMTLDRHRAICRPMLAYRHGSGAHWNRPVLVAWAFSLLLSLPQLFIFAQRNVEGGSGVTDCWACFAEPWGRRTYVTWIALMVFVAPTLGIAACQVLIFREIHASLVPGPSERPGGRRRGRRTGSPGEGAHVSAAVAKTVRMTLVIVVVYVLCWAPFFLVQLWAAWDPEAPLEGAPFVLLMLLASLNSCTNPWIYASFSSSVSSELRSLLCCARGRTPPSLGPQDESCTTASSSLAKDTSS

On to `CO/N=C1/C[C@@H](C(=O)NC[C@@H](O)c2ccccc2)N(C(=O)c2ccc(-c3ccccc3C)cc2)C1` [(2S,4Z)-N-[(2S)-2-hydroxy-2-phenylethyl]-4-(methoxyimino)-1-[(2'-methyl[1,1'-biphenyl]-4-yl)carbonyl]-2-pyrrolidinecarboxamide], for which the Ki on Oxytocin receptor [1] is 135 nM; at Vasopressin V1b receptor it was more than 10000 nM; on Oxytocin receptor [2], 17 nM; at Vasopressin V1a receptor, 170 nM; on Vasopressin V2 receptor, more than 10000 nM.
For the compound `CCOc1ccc(C[C@H]2NC(=O)CCSSC[C@@H](C(=O)N3CCC[C@H]3C(=O)N[C@@H](CCCN)C(=O)NCC(N)=O)NC(=O)[C@H](CC(N)=O)NC(=O)[C@H]([C@@H](C)O)NC(=O)[C@H]([C@@H](C)CC)NC2=O)cc1` [CAS_90779-69-4] ([Mpa][dY](Et)ITNCP[Orn]G-NH2; disulfide 1-6), the inhibition constant Ki on Vasopressin V1b receptor was 657 nM; on Oxytocin receptor [2], 81 nM; at Vasopressin V1a receptor, 3.5 nM; at Vasopressin V2 receptor, 954 nM.

A word on the Ki: it is the equilibrium dissociation constant of an inhibitor or competing ligand from its target. A high value points to weaker binding.

Values taken from BindingDB's records for doi:10.1124/jpet.103.049395 (Lcg Bioscience, 2003).
